Earlier results in US12150952B2, “Formulation for the use in the simultaneous treatment of coccidial infections and iron deficiencies” (Elanco Animal Health GmbH, priority 2018, dated 2024).
Read-outs that look alike come from different tables or passages of the source.

What was measured:
[1] = value to be understood as stated ±1
Isospora suis = settings: coccidiosis

Molecule	HLB [1]	HLB ([1]; listed as Sodium Docusate)	preventing the disease in experimentally infected piglets (Isospora suis)
CCCCC(CC)COC(=O)CC(C(=O)OCC(CC)CCCC)S(=O)(=O)[O-].[Na+] (stereo not drawn) [Sodium docusate]	about 10	10	–
CCCc1ncc(C[n+]2ccccc2C)c(N)n1 [amprolium]	–	–	not been successful in preventing the disease
O=C1OCCN1/N=C/c1ccc([N+](=O)[O-])o1 [furazolidon]	–	–	not been successful in preventing the disease
CC[C@@]1([C@@H]2O[C@@H]([C@H]3O[C@@](O)(CO)[C@H](C)C[C@@H]3C)C[C@@H]2C)CC[C@H]([C@]2(C)CC[C@]3(C[C@H](O)[C@@H](C)[C@@H]([C@@H](C)[C@@H](OC)[C@H](C)C(=O)O)O3)O2)O1 [monensin]	–	–	not been successful in preventing the disease
Sorbitan Monooleate	about 4.6	–	–
